Experimental data: patent publication US12576083B2, “Combinational therapy of LSD1 inhibitors with P21 activators in the treatment of cancer” (Istituto Europeo di Oncologia S.r.l., priority 2017, dated 2026)

System: p21
Experiment: p21 expression in NB4 cells treated with HDAC inhibitors
Type: cell-based
Conditions: with p21-shRNA or scramble shRNA
Procedure: FIGS. 9A-9C. […] (FIG. 9B) NB4 cells were infected with SCR (control) or P21 shRNA, and knockdown was monitored by qPCR. Values are normalized against GAPDH. (FIG. 9C) Monitoring of p21 expression upon the indicated treatments. (SCR=Scramble shRNA, NI=Not Infected, HDACi=HDAC inhibitor=SAHA or TSA).
NB4 cells were treated with HDAC inhibitors, trichostatin A (TSA) and suberoylanilide hydroxamic acid (SAHA), in combination with p21-shRNA or scramble shRNA (SCR). NB4 cells with p21 knock-down without HDAC inhibitor treatment (p21KD-DMSO), NB4 cells without p21 knock-down and without HDAC inhibitor treatment (Scr-DMSO), untreated UF1 cells (UF1-DMSO) were included as control.

| Compound | p21 expression in NB4 cells |
| --- | --- |
| O=C(CCCCCCC(=O)Nc1ccccc1)NO [SAHA, suberoylanilide hydroxamic acid] | induced p21 expression |
| CC(/C=C/C(=O)NO)=C\[C@@H](C)C(=O)c1ccc(N(C)C)cc1 [TSA, trichostatin A] | induced p21 expression |
